According to ChEMBL document CHEMBL1857833, “Screening and optimization of specific chemical series against human African Trypanosomiasis (HAT)”:
≈ marks a conversion by molar mass, not a printed value. Where “and” joins values, the source holds several entries; their conditions need not be identical. Equal entries are not always repeated.

Key:
[1] = DNDI: Cytotoxicity against L929 mouse fibroblasts, 72 hour.; assay type: toxicity, cell-based; conditions: mouse, L929 mouse fibroblasts
[2] = tested on: Trypanosoma brucei; experiment: DNDI: Inhibition of Human African Trypanosomiasis, SBRI 427, in vitro; assay type: functional, organism-based
[3] = DNDI: Solubility in phosphate buffered saline at pH7.4 measured by nephelometry at room temperature (NEPH-RT); assay type: physicochemical; conditions: pH 7.4
[4] = mouse, microsomes, 1 µM
Description: (§1) DNDI: in vitro intrinsic clearance in mouse liver microsomes at a concentration of 1uM

[5] = in vitro; conditions: mouse, liver microsomes
Description: as §1

[6] = in vitro; conditions: mouse, liver microsomes, t (1 / 2)
Description: (§2) DNDI: half life in mouse liver microsomes at a concentration of 1uM

[7] = DNDI: Lipophilicity measured in Chromatographic hydrophobicity index (CHI) assay, pH 7.4; assay type: physicochemical; conditions: buffer
[8] = DNDI: half-life in mouse S9 microsomes at a concentration of 1uM; assay type: ADME, subcellular, Liver, S9 fraction
[9] = molecular target: T1, MDR1 (ABCB1) (Homo sapiens, UniProt P08183); experiment: DNDI: % of compound recovered from apical to basolateral permeability assay in MDCK cells transfected with human MDR1 after 60 mins at a concentration of 3uM; assay type: ADME, cell-based, Canis lupus familiaris; conditions: dog
[10] = molecular target: T1, MDR1 (ABCB1); experiment: DNDI: Apparent permeability from apical to basolateral side of the MDCK cell transfected with human MDR1after 60 mins at a concentration of 3uM; assay type: ADME, cell-based, Canis lupus familiaris; conditions: dog, MDCK-MDR1
[11] = molecular target: T1, MDR1 (ABCB1); experiment: DNDI: % of compound recovered from apical to basolateral permeability assay in MDCK cells transfected with human MDR1 after 60 mins at a concentration of 3uM in the presence of GF120918; assay type: ADME, cell-based, Canis lupus familiaris; conditions: dog, MDCK-MDR1, with GF120918 (concentration not stated)
[12] = molecular target: T1, MDR1 (ABCB1); experiment: DNDI: Efflux ratio for permeability from basolateral to apical side to apical to basolateral side of MDCK cells transfected with human MDR1; assay type: ADME, cell-based, Canis lupus familiaris; conditions: dog, MDCK-MDR1; read-out: Calculated Ratio
[13] = DNDI: Cytotoxicity against L929 mouse fibroblasts, CYTO-SP, 24 hour; assay type: toxicity, cell-based; conditions: mouse, L929 mouse fibroblasts
[14] = tested on: Trypanosoma brucei; experiment: DNDI: Inhibition of Human African Trypanosomiasis, Cross 22, in vitro; assay type: functional, organism-based
[15] = mouse, microsomes, 1 µM; remark: listed apart in the source
Description: as §2

[16] = tested on: Trypanosoma cruzi; experiment: DNDI: Inhibition of Chagas Disease parasite Trypanosoma cruzi (Tulahuen LacZ, Clone C4), in vitro.; assay type: functional, organism-based
[17] = DNDI: Cytotoxicity against L-6 rat myoblasts from skeletal muscle cells; assay type: toxicity, cell-based, L6; conditions: L-6 rat skeletal muscle myoblasts
[18] = tested on: Trypanosoma brucei rhodesiense; experiment: DNDI: Inhibition of Human African Trypanosomiasis (HAT), STIB 900, in vitro; assay type: functional, organism-based
[19] = tested on: Leishmania donovani; experiment: DNDI: Inhibition of formation of Leishmania donovani (strain MHOM/ET/67/L82) axenic amastigotes, in vitro.; assay type: functional, organism-based
[20] = tested on: Plasmodium falciparum; experiment: DNDI: Inhibition of the malaria parasite Plasmodium falciparum, in vitro; assay type: functional, organism-based; conditions: K1
[21] = DNDI: half life in human liver microsomes at a concentration of 10uM; assay type: ADME, Microsome
[22] = DNDI: in vitro intrinsic clearance in human liver microsomes at a concentration of 10uM; assay type: ADME, Microsome
[23] = DNDI: in vitro intrinsic clearance in mouse liver microsomes at a concentration of 10uM; assay type: ADME, Microsome; conditions: read-out: CLint in vitro
[24] = DNDI: half life in mouse liver microsomes at a concentration of 10uM; assay type: ADME, Microsome
[25] = DNDI: % of compound remaining in mouse S9 microsomes at a concentration of 1uM after 60 mins; assay type: ADME, subcellular, Liver, S9 fraction
[26] = DNDI: % of compound remaining in rat S9 microsomes at a concentration of 1uM; assay type: ADME, subcellular, Liver, S9 fraction
[27] = DNDI: Solubility in phosphate buffered saline at pH7.4 measured by optical density (turbidimetry) at room temperature (OD-RT); assay type: physicochemical; conditions: pH 7.4
[28] = Trypanosoma brucei, SBRI 427, read-out: IC50

T1 sequence (P08183 whole entry): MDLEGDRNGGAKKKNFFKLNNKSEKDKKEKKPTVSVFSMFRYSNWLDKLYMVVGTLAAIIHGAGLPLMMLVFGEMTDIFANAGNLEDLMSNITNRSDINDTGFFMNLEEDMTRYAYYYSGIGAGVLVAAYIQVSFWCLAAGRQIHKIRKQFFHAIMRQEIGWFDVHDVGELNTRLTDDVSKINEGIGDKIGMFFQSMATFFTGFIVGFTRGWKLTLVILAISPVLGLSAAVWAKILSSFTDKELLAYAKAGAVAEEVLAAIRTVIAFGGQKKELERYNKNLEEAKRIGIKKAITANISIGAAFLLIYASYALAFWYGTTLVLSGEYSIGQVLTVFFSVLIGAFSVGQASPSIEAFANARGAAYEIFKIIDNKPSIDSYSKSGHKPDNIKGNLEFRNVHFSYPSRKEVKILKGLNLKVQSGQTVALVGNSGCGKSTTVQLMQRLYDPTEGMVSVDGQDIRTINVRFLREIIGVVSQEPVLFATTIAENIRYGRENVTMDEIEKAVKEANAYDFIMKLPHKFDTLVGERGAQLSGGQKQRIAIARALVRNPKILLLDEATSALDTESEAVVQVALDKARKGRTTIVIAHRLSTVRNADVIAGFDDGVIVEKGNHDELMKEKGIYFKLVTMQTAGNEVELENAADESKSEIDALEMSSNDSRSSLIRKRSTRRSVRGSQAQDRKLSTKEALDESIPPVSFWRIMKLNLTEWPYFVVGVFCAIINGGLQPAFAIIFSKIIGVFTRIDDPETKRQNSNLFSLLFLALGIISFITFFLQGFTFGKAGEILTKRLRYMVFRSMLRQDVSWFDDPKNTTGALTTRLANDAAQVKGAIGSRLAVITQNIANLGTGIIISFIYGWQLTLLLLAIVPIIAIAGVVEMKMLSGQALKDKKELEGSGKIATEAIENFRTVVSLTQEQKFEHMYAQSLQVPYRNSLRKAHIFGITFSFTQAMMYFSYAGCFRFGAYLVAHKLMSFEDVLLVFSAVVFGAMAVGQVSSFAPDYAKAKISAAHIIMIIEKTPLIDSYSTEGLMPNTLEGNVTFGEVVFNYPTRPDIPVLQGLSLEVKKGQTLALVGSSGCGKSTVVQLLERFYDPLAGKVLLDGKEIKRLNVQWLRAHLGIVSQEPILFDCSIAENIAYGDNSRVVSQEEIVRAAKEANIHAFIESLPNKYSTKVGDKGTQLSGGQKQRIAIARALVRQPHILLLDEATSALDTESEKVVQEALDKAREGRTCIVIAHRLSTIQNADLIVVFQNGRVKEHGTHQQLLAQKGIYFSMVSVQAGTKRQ

SMILES | IC50 [2, 28] [µg/mL] | solubility kinetic [3] [µM] | CLint in vitro [4] | microsomal CLint at 1 µM [5] [µL/min/mg] | half-life at 1 µM [6] [min] | chromatographic logD [7] | IC50 [14] [µg/mL] | IC50 [2] | t (1 / 2) [15] | IC50 [16] [µg/mL] | IC50 [18] [µg/mL] | IC50 [19] [µg/mL] | IC50 [20] [µg/mL] | half-life at 10 µM [21] [min] | CLint in vitro [22] [µL/min/mg] | microsomal CLint at 10 µM [23] [µL/min/mg] | half-life at 10 µM [24] [min] | IC50 at 72 h [1] [µg/mL] | IC50 at 24 h [13] [µg/mL] | IC50 [17] [µg/mL] | further results
COc1ccccc1CNC(CCc1ccccc1)c1nc(Cc2ccccc2)c(N2CCCCC2)o1 (stereo not given) | 4.41 (≈ 8.9 µM) | 2 (≈ 0.991 µg/mL) | 487 µL/min/mg | 471 | 2 | – | – | – | – | – | – | – | – | – | – | – | – | 8.24 (≈ 16.6 µM) | – | – | –
O/N=C(\NC1CCCCC1)c1ccccc1-c1ccccc1 | 0.62 (≈ 2.11 µM) | – | 119 µL/min/mg | – | 7 | 4.53 | – | – | – | 7.25 (≈ 24.6 µM) | 50.4 (≈ 171 µM) | 27.6 (≈ 93.7 µM) | 2.78 (≈ 9.44 µM) | 557 | 5 | 51 | 57 | > 10 | 50 (≈ 170 µM) | 41.7 (≈ 142 µM) | remaining at 1 h, 1 µM [25]: 6.85%; remaining at 1 µM [26]: 0%; solubility kinetic [27]: 6.3 µM (≈ 1.85 µg/mL)
c1ccc(-c2ccc(-c3nc(CNC4CCCCCC4)co3)cc2)cc1 | – | – | 4 µL/min/mg and 10 µL/min/mg | – | – | – | 0.54 (≈ 1.56 µM) | 0.27 µg/mL and 0.56 µg/mL and 0.41 µg/mL | 88 min and 237 min | – | – | – | – | – | – | – | – | < 3.13 | 25.3 (≈ 73.1 µM) | – | –
CCCCCC(C)NCc1coc(-c2ccc(OCCCC)cc2)n1 (stereo not given) | 0.38 (≈ 1.1 µM) | – | 10 µL/min/mg | 12 | 70 | 5.01 | 0.36 (≈ 1.04 µM) | 0.29 µg/mL and 0.22 µg/mL | 84 min | 1.5 (≈ 4.35 µM) | 0.278 (≈ 0.807 µM) | 4.92 (≈ 14.3 µM) | 0.825 (≈ 2.39 µM) | 104 | 28 | 15 | 187 | 1.54 (≈ 4.47 µM) | > 50 | 2.66 (≈ 7.72 µM) | solubility kinetic [27]: 1.6 µM (≈ 0.551 µg/mL)
COc1ccccc1/C(=N/O)NC1CCCCC1 | 0.52 (≈ 2.09 µM) | – | 40 µL/min/mg | – | 21 | 3.6 | – | – | – | > 30 | 7.46 (≈ 30 µM) | 17 (≈ 68.5 µM) | 3.7 (≈ 14.9 µM) | 128 | 23 | 91 | 32 | > 10 | > 50 | 62.3 (≈ 251 µM) | remaining at 1 h, 1 µM [25]: 1.05%; remaining at 1 µM [26]: 0%; solubility kinetic [27]: > 200 µM
CC1(C)[C@H]2CC[C@@H](CNCc3coc(-c4ccc(-c5ccccc5)cc4)n3)[C@@H]1C2 | – | – | 25 µL/min/mg and 11 µL/min/mg | – | – | – | 0.64 (≈ 1.66 µM) | 0.28 µg/mL and 0.72 µg/mL and 0.58 µg/mL | 80 min and 34 min | – | – | – | – | – | – | – | – | < 3.13 | 17.6 (≈ 45.6 µM) | – | –

The next lines start with results.

IC50 [2, 28] [µg/mL] | solubility kinetic [3] [µM] | CLint in vitro [4] | microsomal CLint at 1 µM [5] [µL/min/mg] | half-life at 1 µM [6] [min] | chromatographic logD [7] | IC50 [14] [µg/mL] | IC50 [2] | t (1 / 2) [15] | IC50 [16] [µg/mL] | IC50 [18] [µg/mL] | IC50 [19] [µg/mL] | IC50 [20] [µg/mL] | half-life at 10 µM [21] [min] | CLint in vitro [22] [µL/min/mg] | microsomal CLint at 10 µM [23] [µL/min/mg] | half-life at 10 µM [24] [min] | SMILES | IC50 at 72 h [1] [µg/mL] | IC50 at 24 h [13] [µg/mL] | IC50 [17] [µg/mL] | further results
> 5 | 100 (≈ 31.3 µg/mL) | – | – | – | 4.09 | – | – | – | – | – | – | – | – | – | – | – | Cc1cc(NCCN(C)C)n2nc(-c3cccc(F)c3)cc2n1 | > 10 | – | – | half-life at 1 µM [8]: 19 min; recovery at 1 h, 3 µM [9]: 97%; Papp A→B at 1 h, 3 µM [10]: 46.6 ×10⁻⁶ cm/s; recovery at 1 h, 3 µM [11]: 108%; efflux ratio [12]: 0.14
> 5 | 25 (≈ 9.24 µg/mL) | – | – | – | 4.44 | – | – | – | – | – | – | – | – | – | – | – | Cc1cc(NCCCN2CCOCC2)n2nc(-c3cccc(F)c3)cc2n1 | > 10 | – | – | half-life at 1 µM [8]: 35 min; recovery at 1 h, 3 µM [9]: 91%; Papp A→B at 1 h, 3 µM [10]: 36.1 ×10⁻⁶ cm/s; recovery at 1 h, 3 µM [11]: 85%; efflux ratio [12]: 0.12
– | – | 8 µL/min/mg | 6 | 140 | – | 0.61 (≈ 1.65 µM) | 0.39 µg/mL and 0.47 µg/mL and 1.12 µg/mL | 113 min | – | – | – | – | – | – | – | – | CCCCOc1ccc(-c2nc(CNC3CC(C)CC(C)(C)C3)co2)cc1 (stereo not given) | < 3.13 | 20.9 (≈ 56.4 µM) | – | –
